“Also recorded” adds a separate entry of the source.
B1: AM3-523: affinity matured CXCR4 i-body, SEQ ID NO: 56 (protein)
chain: LQVDIVPSQGEISVGESKFFLCQVAGSGSHMRISWFSPNGEKLTPNQQRISVVWNDDSSSTLTIYNANIDDAGIYKCVVWVGGYRHRALVLGEATVNVKIFQ
modifications: protein sequence encoding AM3-523

Key:
[1] = Bleomycin mouse model of pulmonary fibrosis; type: in vivo
Outline: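 Mice received bleomycin 2 U/mouse, with i-body dosed just before; at day 4, BAL SDF-1, lung fibrocytes (CD45+ CXCR4+ Collagen1+ by flow cytometry of collagenase/dispase suspensions), Sircol collagen staining and Col-1, Col-3, SDF-1 RNA were assessed. A separate 21-day bleomycin study tested PEGylated i-body.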

[2] = Murine air pouch model with SDF-1; type: in vivo, BALB/c mice; conditions: intraperitoneal, 30 minutes before SDF-1 6 μg
Method: The ability of i-bodies to block inflammation was evaluated in an in vivo murine air pouch model. The subcutaneous (s.c.) air pouch is an in vivo model used to study acute and chronic inflammation (Durate et al, Models of Inflammation: Carrageenan Air Pouch, Current Protocols in Pharmacology 5.6.1-5.6.8, March 2012). Injection of irritants into an air pouch in rats or mice induces an inflammatory response that can be quantified by the volume of exudate produced, the infiltration of cells, and the release of inflammatory mediators. An air pouch, is generated by injection of sterile air under the skin of the back of the mouse. […] Air pouch lavage fluid is then analyzed for cell trafficking and cytokine release.
The air pouch assay was performed on 7-week-old BALB/c mice. On days 1 and 3, 0.2 ml/g initial body weight (IBW) of sterile air was injected under the back skin to create the pouch. […] Thirty minutes later, SDF-1 (6 μg) was injected into the pouch. Four hours later, the mice were killed in a CO2 chamber and the air pouch was washed. Cells were collected, counted, and characterized by flow cytometry.

[3] = tested on: human CD34+CD38− HSC; test: In vitro flow cytometric binding to HSC; type: cell-based; conditions: 10 μg/ml; for binding to human Cord Blood HSC: in decreasing avidity
Method: To determine whether CXCR4 i-bodies bind HSC, in vitro binding analysis to human CD34+CD38^− cells was assessed. Umbilical cord blood (CB) and human bone marrow (BM) were collected as previously described (Nilsson S K et al, 2005 15; 106(4):1232-9; Grassinger, 2009 2; 114(1):49-59). Enriched human BM CD34+ cells and purified CB CD34^+ cells were isolated as previously described (Grassinger, 2009). Human CB and BM CD34+ cells and huNSG BM were stained sequentially with CXCR4 i-bodies (10 μg/ml), anti-His-PE and an antibody cocktail containing CD34-FITC (BD Biosciences #348053) and CD38-BV421 (BD Horizon #562444), washed with PBS (0.5% BSA) and analysed by flow cytometry on a Cytopeia Influx (BD) as previously described (Grassinger, 2009). For analysis of human and murine BM and PB, up to 5×10^6 cells were analyzed at 10-20,000 cells/sec. Data were analyzed using FlowJo 10 software (FlowJo, LLC). For analysis of huNSG BM, huCD45-PECy7 (BD Biosciences #557748) and muCD45-BUV395 (BD Biosciences #564279) were also included in the antibody cocktail. HSC from human CB and BM were defined as CD34+CD38− and HSC from huNSG mice were defined as muCD45^−huCD45^+CD34^+CD38^−. CB and BM samples from 3 individual donors and BM from 3 individual huNSG mice were assessed.

[4] = tested on: Ramos tumor cells; test: Apoptosis assay (annexin V / propidium iodide flow cytometry); type: cell-based, human; conditions: annexin V and propidium iodide double positive, 24 or 72 hours
[5] = tested on: human CD34+ stem and progenitor cells; test: Mobilisation of human CD34+ cells in humanised NSG mice; type: in vivo, humanized NODSIL2Rγ (NSG) mice; conditions: humanised NSG mouse model, compared to AMD3100
Method: To acquire evidence of mobilisation of human CD34^+ stem and progenitor cells using CXCR4 i-bodies, the above mobilisation experiment was conducted in humanized NODSIL2Rγ (NSG) mice. NSG mice are severely immunodeficient and lack mature T cells, B-cells and NK cells and have severely defective innate immunity, which allows engraftment of human cells without subsequent rejection. NSG mice were transplanted with freshly sorted CD34^+ cord blood cells and upon confirmation of positive human CD45/CD34 engraftment (˜4-5 weeks) were used as a mouse model for human stem cell mobilisation.
Mobilised peripheral blood was harvested and assessed for CD34^+ (human stem and progenitors).

[6] = tested on: Ramos tumor cells; test: MTT cell proliferation assay; type: cell-based, human; conditions: 24 to 72 hrs, AM3-114 at 10 μM
Method: The ability of the CXCR4 molecules or polypeptides disclosed herein (i-bodies) to inhibit proliferation of Ramos tumor cells, a human Burkitt's lymphoma cell line expressing CXCR4 mentioned above, in vitro was examined in a MTT cell proliferation assay as described in (Lapteva (2005) Cancer Gene Therapy 12, 84-89). Cells were grown in a 96-well tissue culture plate and treated with a vehicle or the anti-CXCR4 body. The cells were then incubated with the MTT solution for approximately 4 hours. After this incubation period, a water-insoluble formazan dye is formed. After solubilization, the formazan dye is quantitated using a scanning multi-well spectrophotometer (ELISA reader).

[7] = tested on: white blood cells, LSK and LSKSLAM cells in peripheral blood; test: Stem cell mobilisation in mice after i.v. injection; type: in vivo, mouse; conditions: 1 and 3 hours after i.v. injection, compared to AMD3100
Method: After 1 and 3 hours, mice were euthanized and peripheral blood (PB) harvested. Spleens were harvested and weighed to assess for splenomegaly (enlargement of the spleen). Samples were lysed to remove red blood cells and 4000 cells plated for LPP (low-proliferative potential) and CFU-HPP (colony forming unit-high proliferative potential) colonies (colony counting 7 days post-plating). The remaining cells were stained with an antibody cocktail to assess lineage-committed, stem and progenitor cell content. Flow cytometric analysis was used to calculate numbers of lineage-committed cells, haemopoietic stem and progenitor cells as well as enriched HSC per volume of PB.

binding to human Cord Blood HSC [3]	Molecule	collagen content of the lung (Sircol) ([1]; 30 mg/kg)	recruitment of fibrocytes into the lungs ([1]; 30 mg/kg, day 4, CD45+ CXCR4+ Col 1+ cells)	cell migration / leukocyte infiltration into the air pouch [2]	binding to human Bone Marrow HSC and Bone Marrow from huNSG mice [3]	induction of apoptosis in Ramos cells [4]	mobilisation of human CD34+ stem cells [5]	growth of RAMOS cells [6]	mobilisation of white blood cells [7]	recruitment of fibrocytes into the lungs ([1]; 1 mg/Kg, day 4)	recruitment of fibrocytes into the lungs ([1]; day 4, dose not given)
effectively bound	AM3-114: affinity matured CXCR4 i-body, SEQ ID NO: 40	reduced the collagen content	dramatically attenuate	inhibiting leukocyte infiltration; also recorded: inhibited cell migration	effectively bound	induced apoptosis	do not mobilise stem cells	substantially inhibit the growth	No mobilisation		
effectively bound	B1	reduced the collagen content		inhibiting leukocyte infiltration; also recorded: inhibited cell migration		induced apoptosis	do not mobilise stem cells	no observable effect	No mobilisation	block recruitment of fibrocytes	significantly attenuate

From patent US11142588B2, “Polypeptides which bind C-X-C chemokine receptor type 4 (CXCR4) and methods of treating or reducing the risk of fibrosis and cancer” (AdAlta Limited, priority 2015, dated 2021)
